Laboratory results taken from patent publication US7855228B2, “Antibiotics targeting MreB” (The Board of Trustees of the Leland Stamford Junior …, priority 2005, dated 2010).
In brackets after ≈: the same amount, converted by molar mass. Where two headings read alike, the source gives them in different places.

What was measured:
HoIB-GFP = HoIB-GFP (replisome) localization; format: cell-based, Caulobacter crescentus; conditions: 1 hr treatment
Procedure: To assess the ability of these cells to assemble a replisome at the replication origins, A22 was administered to cells expressing a fusion of GFP to the HoIB subunit of DNA polymerase.

[1] = tested on: Caulobacter DNA replication; assay: Analysis of DNA replication (32P-labeled dGTP incorporation, DNA-content FACS); format: cell-based, Caulobacter crescentus; conditions: 10 μg/ml A22 or 5 mg/ml HU
From the text: We first examined the incorporation of radiolabeled dGTP into DNA, which linearly correlates with the rate of DNA replication. […] To assess the effect of A22 on DNA replication during the cell cycle, the radiolabeled nucleotide incorporation assay was repeated using synchronized cultures at different points in the cell cycle. Untreated cells display a dramatic rise in radioactivity levels characteristic of DNA replication initiation at the swarmer-to-stalked cell transition. This rise in radioactivity levels was also observed in A22-treated cells (FIG. 6A).
Finally, we examined the DNA content of A22-treated cells by FACS.
Analysis of DNA Replication. DNA replication was assessed by incorporation of 32P-labeled dGTP) or chromomycin-stained DNA-content FACS analysis as described previously.

E. coli MG1655 [2] = assay: Microscopic observation of cell shape; format: cell-based; conditions: Example 2; methods as in Example 1
Procedure: Microscopic observation. E. coli K-12 strain MG1655 (F^− λ^−) was grown in Lennox broth containing 1% Polypepton, 0.5% yeast extract, 0.5% NaCl, and 0.1% glucose (pH 7.2). Cells spread on a slide glass were treated with methanol for 5 min and covered with poly-L-lysine. The fixed cells were observed by the differential interference contrast system through an Axioskop 2 microscope (Carl Zeiss Co., Ltd., Oberkochen, Germany). To observe the anucleate cells, cells were stained with a 4′,6-diamidino-2-phenylindole (DAPI) solution (5 μg/ml in saline) and then observed by the fluorescence phase-contrast combined method.
The effect of each compound on E. coli cell morphology was next examined.

[3] = tested on: S. aureus subsp. aureus NBRC15035; assay: Determination of minimum inhibitory concentration (MIC); format: cell-based, Staphylococcus aureus; conditions: Staphylococcus aureus, NBRC15035, Example 2; methods as in Example 1; read-out: MIC S. aureus
Procedure: (§1) Determination of minimum inhibitory concentration (MIC). MICs were also determined on Mueller Hinton agar plates (0.2% beef extract, 1.75% acid digest of casein, 0.15% soluble starch, 1.5% agar, pH 7.3).
(§2) Determination of MIC Minimal inhibitory concentrations (MICs) were determined using a standard 2-fold serial dilution format on L agar plates. Ten microliters of stationary culture diluted in 0.85% NaCl to 10^6 cells/ml were spotted on per plate. […] MICs were also determined on Mueller Hinton agar plates (0.2% beef extract, 1.75% acid digest of casein, 0.15% soluble starch, 1.5% agar, pH 7.3).

E. coli MG1655 [4] = assay: as above; format: cell-based; conditions: Escherichia coli, MG1655, Example 2; methods as in Example 1; read-out: MIC E. coli
Procedure: as §1, §2

S. typhimurium NBRC13245 = assay: as above; format: cell-based, Salmonella typhimurium; conditions: Salmonella enterica, Example 2; methods as in Example 1; read-out: MIC S. typhimurium
Procedure: as §1, §2

P. putida NBRC14164 = assay: as above; format: cell-based, Pseudomonas putida; conditions: Pseudomonas putida, NBRC14164, Example 2; methods as in Example 1; read-out: MIC P. putida
Procedure: as §1, §2

B. subtilis 168 = assay: as above; format: cell-based, Bacillus subtilis; conditions: Bacillus subtilis, 168, Example 2; methods as in Example 1; read-out: MIC B. subtilis
Procedure: as §1, §2

[5] = tested on: E. coli K-12 strains (ponB, mreB alleles); assay: MICs of mecillinam and A22 for E. coli K-12 strains; format: cell-based; conditions: Escherichia coli
Procedure: as §2

E. coli JA221, JST975 = assay: Cell shapes of A22-resistant mutant JA221 and parent JST975; format: cell-based; conditions: mecillinam treatment (1 μg/ml, 2 h, 37° C.)
Procedure: FIG. 9. Effects of A22 and mecillinam on cell shapes of the A22-resistant mutant JA221. Exponentially growing cells of the A22-resistant mutant strain JA221 and the parent strain JST975 were treated with 1 μg/ml mecillinam or 10 μg/ml A22 for 2 h at 37° C. Differential interference contrast microphotographs are shown.
After prolonged (9 days) incubation of the JST975 assay plates, several isolated colonies that grew up within the clear growth inhibitory zones were purified on L plates and their A22-sensitivity was examined.

| SMILES | HoIB-GFP localization (HoIB-GFP) | Incorporation of radiolabeled dGTP, synchronized cultures (replication initiation) [1] | Shape (E. coli MG1655 [2]) | MIC [3] [mg/L] | MIC (E. coli MG1655 [4]) [mg/L] | MIC (S. typhimurium NBRC13245) [mg/L] | MIC (P. putida NBRC14164) [mg/L] | MIC (B. subtilis 168) [mg/L] | MIC ([5]; read-out: MICs, strain JA221 (ponB −, mreB221)) [mg/L] | MIC ([5]; read-out: MICs, strain JE1011 (ponB +, mreB +)) [mg/L] | MIC ([5]; read-out: MICs, strain JM109/pMW218 (ponB +, mreB +/−)) [mg/L] | MIC ([5]; read-out: MICs, strain JM109/pMreB1 (ponB +, mreB +/+)) [mg/L] | MIC ([5]; read-out: MICs, strain JM109/pMreB221 (ponB +, mreB +/mreB221)) [mg/L] | MIC ([5]; read-out: MICs, strain JST975 (ponB −, mreB +)) [mg/L] | MIC ([5]; read-out: MICs, strain JSTA220 (ponB −, mreB +)) [mg/L] | MIC ([5]; read-out: MICs, strain JSTA221 (ponB −, mreB221)) [mg/L] | MIC ([5]; read-out: MICs, strain WA220 (ponB +, mreB +)) [mg/L] | MIC ([5]; read-out: MICs, strain WA221 (ponB +, mreB221)) [mg/L] | Cell shape of resistant mutant JA221 (E. coli JA221, JST975) |
| --- | --- | --- | --- | --- | --- | --- | --- | --- | --- | --- | --- | --- | --- | --- | --- | --- | --- | --- | --- |
| NC(=O)NO [HU, hydroxyl-urea, reference compound] | rapid delocalization of HoIB-GFP | no such increase in radioactivity levels |  |  |  |  |  |  |  |  |  |  |  |  |  |  |  |  |  |
| CC1(C)S[C@@H]2[C@H](/N=C/N3CCCCCC3)C(=O)N2[C@H]1C(=O)O [mecillinam, reference compound] |  |  | Sphere | 50 (≈ 154 µM) | 0.0977 (≈ 0.3 µM) | 0.0977 (≈ 0.3 µM) | > 100 | 12.5 (≈ 38.4 µM) | 0.125 (≈ 0.384 µM) | 0.25 (≈ 0.768 µM) | 0.125 (≈ 0.384 µM) | 0.125 (≈ 0.384 µM) | 0.125 (≈ 0.384 µM) | 0.125 (≈ 0.384 µM) | 0.125 (≈ 0.384 µM) | 0.125 (≈ 0.384 µM) | 0.25 (≈ 0.768 µM) | 0.25 (≈ 0.768 µM) | formed spherical cells |
